Source: patent US9827219B2, “Compositions and methods for lowering levels of high-sensitivity C-reactive protein (HS-CRP) in a subject” (priority 2012, dated 2017)

Test system: cognitive performance in subjects with AAMI
Assay: CDR computerized cognitive test battery, 6-week pilot study in Age-Associated Memory Impairment (Example 1)
Format: in vivo, human
Details: for Quality of Episodic Secondary Memory, LS mean difference vs placebo: overall
Description: A single-center, 6-week, double-blind, randomizes, parallel-group, placebo-controlled, dose-ranging pilot study was performed to evaluate the efficacy, tolerability, and safety of >96% ethyl-EPA in subjects with subjective and objective memory impairment according to generally accepted criteria for Age-Associated Memory Impairment (“AAMI”). The primary objective of the study was to determine the effect of >96% ethyl-EPA 1 g, 2 g, and 4 g daily, compared to placebo, on cognitive performance in subjects with AAMI.
The population for this study was men and women between ages 50 and 70 with self-reported complaints of memory loss, subjective and objective cognitive impairment with a score of at least one standard deviation below that of the mean for age-matched elderly population as determined by the total score of between 13 and 20 from the Paired Associated Learning (“PAL”) subset of the Wechsler Memory Scale, evidence of adequate intellectual function as determined by a scaled score of at least 9 (raw score of at least 32) on the Vocabulary subtest of the Wechsler Adult Intelligence Scale and absence of dementia as determined by a score of 24 or higher on the Mini-Mental State Examination (“MMSE”).
Ninety-four subjects were randomized into one of six groups: 1 g E-EPA daily (n=23), 2 g E-EPA daily (n=24), 4 g E-EPA daily (n=24), 1 g placebo daily (n=7), 2 g placebo daily (n=8), and 4 g placebo daily (n=8). E-EPA was provided as 500 mg soft gel capsules containing >96% E-EPA and 0.2% dl-α-tocopherol as an antioxidant. Placebo capsules contained 467 mg of liquid paraffin and 0.2% dl-α-tocopherol. Ninety-one subjects completed the study. Two subjects in the 2 g E-EPA group and one subject in the 2 g placebo group discontinued the study.
The study consisted of a screening visit, a training visit, and four study visits. At the screening visit, subjects' eligibility was determined through cognitive tests (verbal paired associated learning [PAL] subscale, vocabulary subtest, Memory Assessment Clinics Questionnaire [MAC-Q], mini mental state evaluation [MMSE] and MINI [mini international neuropsychiatric interview; sections 1 and 2 of Diagnostic and Statistical Manual of Mental Disorders, 4th Edition (DSM-IV) plus dysthymia]), haematology, clinical chemistry and 12-lead electrocardiogram (ECG). At the training visit, subjects were shown how to use the CDR computerized system. Subjects took study drug for 6 weeks and on Days 0, 14, 28 and 42, subjects underwent the CDR cognitive test battery.
A selection of tasks from the CDR computerized cognitive assessment system were administered at Visit 2 (training visit), Visit 3 (baseline), Visit 4 (Day 14), Visit 5 (Day 28) and Visit 6 (Day 42). Parallel forms of the tests were presented at each testing session. All tasks were computer-controlled, the information presented on high resolution monitors, and the responses recorded via a response model containing two buttons: one marked ‘no’ and the other ‘yes’. Five CDR composite scores were used as the primary/secondary outcome variables. The task titles were: • Word Presentation • Immediate Word Recall • Picture Presentation • Simple Reaction Time • Digit Vigilance • Choice Reaction Time • Spatial Working Memory • Numeric Working Memory • Delayed Word Recall • Word Recognition • Picture Recognition • Bond-Lader Visual Analogue Scales of Mood and Alertness • Screen, Using the Computer Mouse
To ensure consistency of approach, full training on the cognitive tests and CDR test battery was provided to study site staff and study subjects. The results of each variable were automatically recorded using the machine interface developed by CDR.
Summary statistics were provided for the ITT and Study Per Protocol Populations separately for all composite scores, major and supportive variables. Summary statistics were performed for both the unadjusted and difference from baseline data (i.e. the difference from the time matched predose assessments on Day 0). […]

[1] = post-hoc vs corresponding placebo
[2] = post-hoc vs corresponding placebo, 1 g, Days 14 and 28

For CC/C=C\C/C=C\C/C=C\C/C=C\C/C=C\CCCC(=O)OCC [AMR101, all-cis eicosa-5,8,11,14,17-pentaenoic acid ethyl ester], the “Immediate Word Recall Accuracy, LS mean difference to placebo” value (Study Per-Protocol, 1 g, AM 2, p=0.048) was “statistically significant decreases”, the “Immediate Word Recall Accuracy, LS mean difference to placebo” value (Study Per-Protocol, 1 g, Day 14, p=0.024) was “statistically significant decreases” and the “Immediate Word Recall Accuracy, LS mean difference to placebo” value (Study Per-Protocol, 1 g, Day 14 at PM 2, p=0.019) was “statistically significant decreases”. For the same compound, the “Word Recognition Sensitivity Index, LS mean difference to placebo” value (Study Per-Protocol, 1 g, Day 28, p=0.027) was “statistically significant decreases”, the “Picture Recognition Sensitivity Index, LS mean difference vs placebo” value (Study Per-Protocol, 1 g, Day 28 at AM 2, p=0.020) was “statistically significant decreases versus placebo” and the “Picture Recognition Sensitivity Index, LS mean difference vs placebo” value (Study Per-Protocol, 1 g, Day 28 at PM 2, p=0.026) was “statistically significant decreases versus placebo”. For the same compound, the “Quality of Episodic Secondary Memory, LS mean difference vs placebo” value (Study Per-Protocol, 1 g, p=0.043) was “statistically significant decreases versus placebo”, the “Immediate Word Recall Accuracy, LS mean difference to placebo” value (Study Per-Protocol, 2 g, AM 1, p=0.029) was “statistically significant decreases” and the “Immediate Word Recall Accuracy, LS mean difference to placebo” value (Study Per-Protocol, 2 g, Day 28, p=0.017) was “statistically significant decreases”. For the same compound, the “Self-Rated Alertness, LS mean difference vs placebo” value (Study Per-Protocol, 2 g, Day 28, p=0.035) was “statistically significant decrease in ratings”, the “Immediate Word Recall Accuracy, LS mean difference to placebo” value (Study Per-Protocol, 2 g, Day 28 at AM 1, p=0.006) was “statistically significant decreases” and the “Self-Rated Alertness, LS mean difference vs placebo” value (Study Per-Protocol, 2 g, Day 28 at AM 2, p=0.033) was “statistically significant decrease in ratings”. The “Quality of Episodic Secondary Memory, LS mean difference vs placebo” value (Study Per-Protocol, 2 g, p=0.036) was “statistically significant decreases versus placebo”, the “Word Recognition Sensitivity Index, LS mean difference to placebo” value (Study Per-Protocol, 4 g, Day 42, p=0.038) was “statistically significant decreases” and the “Self-Rated Calmness, LS mean difference vs placebo” value (Study Per-Protocol, 4 g, Day 42 at PM 1, p=0.071) was “statistical trend for an increase in ratings versus placebo”. The “Delayed Word Recall Accuracy” value (Study Per-Protocol, ANCOVA) was “no statistically significant effects of treatment”, the “Digit Vigilance Speed” value (Study Per-Protocol, ANCOVA) was “no statistically significant effects of treatment” and the “Immediate Word Recall Accuracy” value (Study Per-Protocol, ANCOVA) was “no statistically significant effects of treatment”. The “Numeric Working Memory Speed” value (Study Per-Protocol, ANCOVA) was “no statistical significant effects of treatment”, the “Picture Recognition Sensitivity Index” value (Study Per-Protocol, ANCOVA) was “no statistically significant effects of treatment” and the “Picture Recognition Speed” value (Study Per-Protocol, ANCOVA) was “no statistical significant effects of treatment”. For the same compound, the “Power of Attention” value (Study Per-Protocol, ANCOVA) was “no statistically significant effect of treatment”, the “Quality of Episodic Secondary Memory” value (Study Per-Protocol, ANCOVA) was “no statistically significant effects of treatment” and the “Self-Rated Alertness” value (Study Per-Protocol, ANCOVA) was “no statistically significant effect of treatment”. The “Self-Rated Calmness” value (Study Per-Protocol, ANCOVA) was “no statistically significant effect of treatment”, the “Simple Reaction Time” value (Study Per-Protocol, ANCOVA) was “no statistically significant effects of treatment” and the “Spatial Working Memory Speed” value (Study Per-Protocol, ANCOVA) was “no statistical significant effects of treatment”. The “Speed of Memory” value (Study Per-Protocol, ANCOVA) was “no statistical significant effects of treatment”, the “Word Recognition Sensitivity Index” value (Study Per-Protocol, ANCOVA) was “no statistically significant effects of treatment” and the “Word Recognition Speed” value (Study Per-Protocol, ANCOVA) was “no statistical significant effects of treatment”. For the same compound, the “Self-Rated Contentment” value (Study Per-Protocol, ANCOVA, p<0.001) was “statistically significant treatment by day interaction”, the “Choice Reaction Time” value (Study Per-Protocol, ANCOVA, p=0.013) was “statistically significant treatment by day interaction” and the “Spatial Working Memory Sensitivity Index” value (Study Per-Protocol, ANCOVA, p=0.014) was “statistically significant treatment by day interaction”. The “Quality of Working Memory” value (Study Per-Protocol, ANCOVA, p=0.021) was “statistically significant treatment by day interaction”, the “Power of Attention, difference active vs placebo” value (Study Per-Protocol, any time-point) was “no difference between active treatment and placebo” and the “Continuity of Attention” value [1] was “no general pattern of effects”. The “Numeric Working Memory Sensitivity Index” value [1] was “only isolated improvements and declines in performance”, the “Quality of Working Memory” value [1] was “only isolated improvements and declines in performance” and the “Self-Rated Calmness” value [1] was “no differences between active treatment and placebo”. For the same compound, the “Power of Attention” value (post-hoc vs corresponding placebo group, 4 g, Day 42) was “overall benefit versus the corresponding placebo”, the “Self-Rated Alertness” value [2] was “decreases in ratings” and the “Self-Rated Contentment” value [2] was “decreases in ratings”. The “Choice Reaction Time” value (post-hoc vs corresponding placebo, 4 g, Day 42) was “superior to placebo at every time point”, the “Spatial Working Memory Sensitivity Index” value (post-hoc vs corresponding placebo, 4 g, Day 42, Study PP Population) was “overall benefit for ethyl-EPA 4 g over placebo” and the “Simple Reaction Time” value (post-hoc vs corresponding placebo, 4 g, PM 2 collapsed across days, several time-points on Days 14 and 42) was “improvements in performance”. The “Choice Reaction Time” value (post-hoc vs corresponding placebo, 4 g, all study days) was “overall benefit versus corresponding placebo”, the “Quality of Episodic Secondary Memory and contributing subtasks” value (post-hoc vs corresponding placebo, explained by pre-existing differences between groups) was “a number of decreases for ethyl-EPA” and the “Subtask measures of Speed of Memory” value (post-hoc vs corresponding placebo, mostly 1 g) was “some signs of improvement in performance”.
